Reference: patent publication US10407445B2, “Hepatitis C virus inhibitors” (ENANTA PHARMACEUTICALS, INC., priority 2013, dated 2019)

Columns and labels:
[1] = system: HCV genotype 1a replicon, NS5A Q30R; assay: Transient replication assay, GT1a NS5A Q30R; assay type: cell-based; conditions: Hepatitis C virus
HCV GT 1b replicon = assay: HCV replicon assay, stable GT 1b replicon (Renilla luciferase); assay type: cell-based; conditions: Hepatitis C virus, GT1B, 72 h
How it was run: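 Stable Huh-7.5-based GT1b replicon (Con1-derived) carrying hRluc-Neo, 4000 cells/well seeded onto a sixteen-point half-log compound series in G418-free, phenol red-free medium. After 72 h, Renilla luciferase is read relative to DMSO controls; CC50 in the same cells by CellTiter-Glo.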

[2] = IV and PO single dose pharmacokinetic studies in SD rats; assay type: in vivo; conditions: Sprague-Dawley, rat, plasma, male SD rats, oral gavage 20 mg/kg vs IV bolus 2 mg/kg
Method: The pharmacokinetics of selected compounds was characterized in male Sprague-Dawley (SD) rats (250-300 g). […] The intravenous (IV) dosing vehicle was 5% ethanol and 95% of 20% 2-hydroxypropyl β-cyclodextrin in water. The oral dosing vehicle was 33% of Microemulsion Preconcentrate #5 (a lipid based self-emulsifying drug delivery system, SEDDS) and 67% of 50 mM citrate buffer (final pH 3.6).
Serial blood samples (approximately 0.3 mL each) were collected from jugular vein or other suitable vein at specified time points. For the IV dosing group, the blood samples were collected predose and at 0.08, 0.25, 0.50, 1, 3, 6, 8, and 24 hours after the start of dosing. For the oral group, the blood samples were collected predose and at 0.08, 0.25, 0.50, 1, 3, 6, 8, and 24 hours after dosing. The blood samples were collected into VACUTAINER™ tubes containing EDTA-K3 as the anti-coagulant and were centrifuged at approximately 4° C. to obtain plasma. The plasma samples were stored at −20° C. until analysis by LC/MS/MS.
A bioanalytical method utilizing high performance liquid chromatography coupled to tandem mass spectrometry (LC/MS/MS) was developed for analysis of the selected compound in rat plasma. Detection was performed using multiple reaction monitoring (MRM); Ions representing the precursor (M+H)^+ species was selected in quadrupole 1 (Q1) and collided with nitrogen gas in the collision cell (Q2) to generate specific product ion, which was subsequently monitored by quadrupole 3 (Q3). Standard curve and quality control samples were prepared in male rat plasma and processed in the same way as the test samples to generate quantitative data.
Pharmacokinetic parameters were generated using non-compartmental pharmacokinetic analysis (Phoenix WinNonlin, version 6.3). Values below the lower limit of quantification (LLOQ) were assigned a value of zero if predose and treated as missing thereafter. Area under the curve (AUC) was calculated using the linear trapezoidal rule. The oral bioavailability (% F) was determined by comparison of the area under the curve (AUC) of the compound in plasma following oral administration to that generated following intravenous administration.

SMILES | EC50 [1] [pM] | EC50 (HCV GT 1b replicon) [pM] | bioavailability [2] [%]
COC(=O)N[C@H](C(=O)N1CCC[C@H]1c1nc(-c2ccc(-c3ccc(-c4c[nH]c([C@@H]5CCCN5C(=O)[C@@H](NC(=O)OC)C(C)C)n4)cc3)cc2)c[nH]1)C(C)C [Daclatasvir, reference compound] | 3400 |  | 
COC(=O)N[C@H](C(=O)N1C[C@]2(CCCOC2)C[C@H]1c1ncc(-c2ccc(-c3ccc4c(ccc5nc([C@@H]6C[C@@H]7CCC[C@@H]7N6C(=O)[C@@H](NC(=O)OC)C(C)C)[nH]c54)c3)cc2)[nH]1)C(C)C [Compound 16] | 12 | 10 | 23.7
COC(=O)N[C@H](C(=O)N1CCC[C@H]1c1nc2ccc3cc(-c4ccc5c(ccc6nc([C@@H]7C[C@@]8(CCCOC8)CN7C(=O)[C@@H](NC(=O)OC)C(C)C)[nH]c65)c4)ccc3c2[nH]1)C(C)C [Compound 48] |  | 9 | 1.7
COC(=O)N[C@H](C(=O)N1C[C@]2(CCCOC2)C[C@H]1c1ncc(-c2ccc(-c3ccc4c(ccc5nc([C@@H]6C[C@@]7(CCCOC7)CN6C(=O)[C@@H](NC(=O)OC)C(C)C)[nH]c54)c3)cc2)[nH]1)C(C)C [Compound 11] |  | 52 | 7.1
COC(=O)N[C@H](C(=O)N1C[C@]2(CCCOC2)C[C@H]1c1nc2ccc3cc(-c4ccc(-c5cnc([C@@H]6C[C@@H]7CCC[C@@H]7N6C(=O)[C@@H](NC(=O)OC)C(C)C)[nH]5)cc4)ccc3c2[nH]1)C(C)C [Compound 10] |  | 5 | 5.7
